Test results from patent publication US7183075B2, “Purified and isolated potassium-chloride cotransporter nucleic acids and polypeptides and therapeutic and screening methods using same” (Vanderbilt University, priority 2000, dated 2007).

How the values were obtained:
hKCC3b = biological target: T1, hKCC3b (Homo sapiens, UniProt Q9UHW9); assay type: cell-based; conditions: 2 mM furosemide; 100 nM calyculin A
T1 construct: expressed in transfected cells; host or cells: Xenopus oocytes microinjected with KCC3b cRNA
T1 sequence (Q9UHW9 1-1099 isoform Q9UHW9-2): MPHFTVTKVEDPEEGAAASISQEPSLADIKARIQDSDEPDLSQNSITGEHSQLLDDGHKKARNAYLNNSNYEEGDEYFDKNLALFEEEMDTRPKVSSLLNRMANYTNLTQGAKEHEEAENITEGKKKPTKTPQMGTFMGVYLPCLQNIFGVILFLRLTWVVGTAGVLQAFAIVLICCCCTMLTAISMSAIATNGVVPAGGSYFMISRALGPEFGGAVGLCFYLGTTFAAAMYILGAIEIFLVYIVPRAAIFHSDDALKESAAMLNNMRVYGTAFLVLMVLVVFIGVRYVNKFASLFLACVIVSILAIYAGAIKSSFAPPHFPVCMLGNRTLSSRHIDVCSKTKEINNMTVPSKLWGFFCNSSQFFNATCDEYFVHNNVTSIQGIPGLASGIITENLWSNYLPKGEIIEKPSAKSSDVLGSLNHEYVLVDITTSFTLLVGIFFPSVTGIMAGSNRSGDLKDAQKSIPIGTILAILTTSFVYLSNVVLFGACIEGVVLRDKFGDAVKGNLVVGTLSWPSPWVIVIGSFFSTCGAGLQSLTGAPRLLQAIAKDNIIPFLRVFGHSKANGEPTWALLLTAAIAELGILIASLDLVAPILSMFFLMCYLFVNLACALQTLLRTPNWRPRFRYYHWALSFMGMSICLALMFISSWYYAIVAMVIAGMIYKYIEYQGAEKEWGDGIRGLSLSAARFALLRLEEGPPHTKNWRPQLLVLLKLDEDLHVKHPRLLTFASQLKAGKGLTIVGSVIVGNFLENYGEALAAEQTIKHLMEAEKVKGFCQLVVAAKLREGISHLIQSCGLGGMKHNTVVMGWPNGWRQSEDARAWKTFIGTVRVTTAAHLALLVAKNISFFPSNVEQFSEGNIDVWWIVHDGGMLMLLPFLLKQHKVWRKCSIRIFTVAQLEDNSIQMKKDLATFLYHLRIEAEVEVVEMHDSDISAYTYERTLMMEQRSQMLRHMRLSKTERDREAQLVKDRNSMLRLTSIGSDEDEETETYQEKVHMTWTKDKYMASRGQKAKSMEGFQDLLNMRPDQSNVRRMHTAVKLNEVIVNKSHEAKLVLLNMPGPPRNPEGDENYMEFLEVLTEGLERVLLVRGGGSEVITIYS
Procedure: Open bars, uptake assays performed in a control medium containing 10 mM K^+and 50 mM Cl^−; hatched bars, uptake assays performed in medium lacking Cl^−; bars with horizontal stripes, uptake assays performed in the presence of 100 nM calyculin A; black bars, uptake assays performed in the presence of okadaic acid; gray bars, uptake assays performed in the presence of cypermetrin.

[1] = biological target: mKCC4 mutant C256A/C469N/C565A/C647M/C633S (Mus musculus, UniProt Q9WVL3, C257A/C469N/C565A/C633S/C647M)
Procedure: (§1) Mercury is known to inhibit several transporters via interaction with transmembrane or juxtamembrane cysteines (Kuwahara et al. (1997) Biochemistry 36:13973–13978; Jacoby (1999) Am J Physiol 277:C684–692). Given the inhibition of the KCCs by millimolar NEM at room temperature, presumed due to alkylation of cysteine residues (Mercado et al. (2000) J Biol Chem 275:30326–3034), the differential response of the KCCs to 50 μM mercury (Hg—Cl2) was examined. […] Of note, a cysteine residue in TM11 of NKCC1 is involved in the response of Na^+—K^+-2Cl^− cotransport to mercury (Jacoby (1999) Am J Physiol 277:C684–692).

[2] = biological target: mKCC4 mutant C256A/C469N/C565A/C647M (Mus musculus, UniProt Q9WVL3, C257A/C469N/C565A/C647M)
Procedure: as §1

Sequence of mKCC4 mutant C256A/C469N/C565A/C647M/C633S (Q9WVL3 whole entry C257A/C469N/C565A/C633S/C647M): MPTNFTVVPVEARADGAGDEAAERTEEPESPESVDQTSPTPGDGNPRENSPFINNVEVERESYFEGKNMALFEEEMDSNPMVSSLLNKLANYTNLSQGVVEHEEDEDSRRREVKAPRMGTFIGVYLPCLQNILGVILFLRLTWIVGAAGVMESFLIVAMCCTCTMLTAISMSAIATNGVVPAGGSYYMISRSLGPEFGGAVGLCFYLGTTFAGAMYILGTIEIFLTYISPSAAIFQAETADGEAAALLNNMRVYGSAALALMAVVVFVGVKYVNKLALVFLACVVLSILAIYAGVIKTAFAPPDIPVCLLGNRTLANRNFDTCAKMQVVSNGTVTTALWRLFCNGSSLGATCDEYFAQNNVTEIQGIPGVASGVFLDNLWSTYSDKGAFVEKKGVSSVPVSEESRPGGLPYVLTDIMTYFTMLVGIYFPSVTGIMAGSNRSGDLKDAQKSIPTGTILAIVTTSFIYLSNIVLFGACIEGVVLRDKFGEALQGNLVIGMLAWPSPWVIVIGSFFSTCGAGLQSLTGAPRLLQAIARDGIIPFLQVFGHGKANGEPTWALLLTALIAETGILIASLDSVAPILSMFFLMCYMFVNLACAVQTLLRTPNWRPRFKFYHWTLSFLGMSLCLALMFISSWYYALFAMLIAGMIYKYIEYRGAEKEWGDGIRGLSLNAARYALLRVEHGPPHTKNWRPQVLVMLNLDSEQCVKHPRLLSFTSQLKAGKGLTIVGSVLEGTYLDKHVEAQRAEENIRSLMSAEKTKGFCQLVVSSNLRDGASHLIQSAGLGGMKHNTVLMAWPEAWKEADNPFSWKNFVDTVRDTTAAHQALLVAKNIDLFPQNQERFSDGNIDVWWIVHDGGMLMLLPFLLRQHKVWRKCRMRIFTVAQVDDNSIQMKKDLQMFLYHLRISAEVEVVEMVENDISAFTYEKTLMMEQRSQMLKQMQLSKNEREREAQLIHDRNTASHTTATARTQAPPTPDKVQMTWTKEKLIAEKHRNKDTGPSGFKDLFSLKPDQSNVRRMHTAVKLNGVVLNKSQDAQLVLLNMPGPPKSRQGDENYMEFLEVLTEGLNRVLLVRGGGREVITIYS
Sequence of mKCC4 mutant C256A/C469N/C565A/C647M (Q9WVL3 whole entry C257A/C469N/C565A/C647M): as the sequence (Q9WVL3 whole entry C257A/C469N/C565A/C633S/C647M) above, with S633C counted along it

Molecule | hKCC3b-mediated K+-Cl- cotransport in the presence of putative inhibitors (hKCC3b) | response of quintuple mutant mKCC4 to HgCl2 [1] | response of quadruple mutant mKCC4 to HgCl2 [2]
COC[C@@H]([C@H](O)[C@H](O)C(=O)NCC[C@H](C)c1nc(/C=C/C[C@@H]2O[C@]3(C[C@@H](O)[C@@H]2C)O[C@H]([C@H](C[C@H](O)[C@H](C)[C@H](O)[C@H](C)/C=C(C)/C(C)=C/C=C/C(C)=C\C#N)OC)[C@H](OP(=O)(O)O)C3(C)C)co1)N(C)C [calyculin A] | blocked | – | –
HgCl2 [Hg—Cl2] | – | resistant | weakly sensitive
